Experimental data from article doi:10.1101/2021.10.07.463234v2 (biorxiv, 2021).
Counter-ions that a name gives are not always drawn.

Molecular target: SARS-CoV-2 Mac1 (Severe acute respiratory syndrome coronavirus 2, UniProt P0DTD1)
Experiment: biochemical
Conditions: for %inhibition: 100 µM, inhibitor; for inhibition at 100 µM: read-out: %inhibition

Compound | %inhibition | inhibition at 100 µM
CC(=O)[C@@]1(O)CC[C@H]2[C@@H]3C[C@H](C)C4=CC(=O)C=C[C@]4(C)[C@@]3(F)[C@@H](O)C[C@@]21C [Fluorometholone] | 0% | 
COc1ccc(C(=O)N2CCCC2=O)cc1 [Aniracetam] |  | 0%
COc1cccc2c1C(=O)c1c(O)c3c(c(O)c1C2=O)C[C@@](O)(C(=O)CO)C[C@@H]3O[C@H]1C[C@H](N)[C@@H](O)[C@H](C)O1 [Epirubicin HCl] |  | 51.4%
CCC[C@@H]1C[C@@H](C(=O)N[C@@H]([C@H]2O[C@H](SC)[C@H](O)[C@@H](O)[C@H]2O)[C@@H](C)O)N(C)C1 [Lincomycin Hydrochloride Monohydrate] | 16.9% | 
C[C@H]1O[C@@H](O[C@H]2[C@@H](O)C[C@H](O[C@H]3[C@@H](O)C[C@H](O[C@H]4CC[C@@]5(C)[C@H](CC[C@@H]6[C@@H]5C[C@@H](O)[C@]5(C)[C@@H](C7=CC(=O)OC7)CC[C@]65O)C4)O[C@@H]3C)O[C@@H]2C)C[C@H](O)[C@@H]1O [Digoxin] |  | 13.2%
CO/N=C(\C(=O)N[C@@H]1C(=O)N2C(C(=O)O)=C(COC(N)=O)CS[C@H]12)c1ccco1 [Cefuroxime sodium] |  | 0%
O=c1ccc2ccccc2o1 [Coumarin] |  | 5.25%
CC(=O)Oc1cc2c(s1)CCN(C(C(=O)C1CC1)c1ccccc1F)C2 (stereo not drawn) [Prasugrel Hydrochloride] | 0% | 
CC1(C)S[C@@H]2[C@H](NC(=O)[C@H](N)c3ccccc3)C(=O)N2[C@H]1C(=O)O [Ampicillin Trihydrate] | 20.11% | 
CCCC(=O)Nc1ccc(OCC(O)CNC(C)C)c(C(C)=O)c1 (stereo not drawn) [Acebutolol HCl] |  | 0%
COc1ccc(O)cc1 [Mequinol] |  | 0%
C=C1[C@H](CO)[C@@H](O)C[C@@H]1n1cnc2c(=O)[nH]c(N)nc21 [Entecavir Hydrate] | 11.65% | 
CN1C(=O)OC(C)(C)C1=O [Trimethadione] |  | 0%
Nc1nccs1 [Aminothiazole] |  | 1.18%
COc1ccc(C2CNC(=O)C2)cc1OC1CCCC1 (stereo not drawn) [Rolipram] |  | 0%
Cc1cccc(C(C)c2c[nH]cn2)c1C (stereo not drawn) [Medetomidine HCl] |  | 21.9%
NC(=NCCCCCCN=C(N)/N=C(\N)Nc1ccc(Cl)cc1)/N=C(\N)Nc1ccc(Cl)cc1 [Chlorhexidine] |  | 10%
Nc1ncnc2nc[nH]c12 [Adenine sulfate] |  | 4.13%
Cc1cc(C)nc(NS(=O)(=O)c2ccc(N)cc2)n1 [Sulfamethazine Sodium Salt] | 12.6% | 
CN[C@@H]1[C@@H](O)[C@@H](O[C@@H]2[C@@H](O)[C@H](O[C@H]3O[C@H](CN)[C@@H](O)[C@H](O)[C@H]3O)[C@@H](N)C[C@H]2NC(=O)[C@@H](O)CN)OC[C@]1(C)O [Isepamicin Sulphate] |  | 5.6%
Cc1cc(NS(=O)(=O)c2ccc(N)cc2)no1 [Sulfamethoxazole sodium] | 0% | 
CC(C)(C)NCC(O)c1cc(O)cc(O)c1 (stereo not drawn) [Terbutaline Sulfate] |  | 0%
OC(CCN1CCCCC1)(c1ccccc1)C1CCCCC1 (stereo not drawn) [Trihexyphenidyl hydrochloride] |  | 2.89%
CC(=O)O[C@@]12CO[C@@H]1C[C@H](O)[C@@]1(C)C(=O)[C@H](O)C3=C(C)[C@@H](OC(=O)[C@H](O)[C@@H](NC(=O)OC(C)(C)C)c4ccccc4)C[C@@](O)([C@@H](OC(=O)c4ccccc4)[C@H]21)C3(C)C [Docetaxel] |  | 11.6%

Compound | %inhibition | inhibition at 100 µM
Cc1ccsc1C(=CCCN1CCC[C@@H](C(=O)O)C1)c1sccc1C [Tiagabine] |  | 9.64%
O=C(N[C@H](CO)[C@H](O)c1ccc([N+](=O)[O-])cc1)C(Cl)Cl [Chloramphenicol] |  | 0%
COc1ccc(C[C@@H]2c3cc(OC)c(OC)cc3CC[N@+]2(C)CCC(=O)OCCCCCOC(=O)CC[N@@+]2(C)CCc3cc(OC)c(OC)cc3[C@H]2Cc2ccc(OC)c(OC)c2)cc1OC [Cisatracurium Besylate] | 1.897% | 
CCN[C@H]1CN(CCCOC)S(=O)(=O)c2sc(S(N)(=O)=O)cc21 [Brinzolamide] |  | 0%
CC1CNc2c(cccc2S(=O)(=O)N[C@@H](CCCNC(=N)N)C(=O)N2CC[C@@H](C)C[C@@H]2C(=O)O)C1 (stereo partly drawn) [Argatroban Monohydrate] | 0% | 
COc1ccc2c(c1)c(CC(=O)O)c(C)n2C(=O)c1ccc(Cl)cc1 [Indomethacin] | 39.29% | 
COc1nc(N)nc2c1ncn2[C@@H]1O[C@H](CO)[C@@H](O)[C@@H]1O [Nelarabine] |  | 50.5%
NCCc1c[nH]cn1 [Histamine 2HCl] | 6.627% | 
C=CC[C@]1(O)CC[C@H]2[C@@H]3CCC4=CC(=O)CCC4=C3C=C[C@@]21C [Altrenogest] |  | 0%
Nc1nc(=O)c2nc(CNc3ccc(C(=O)N[C@@H](CCC(=O)O)C(=O)O)cc3)cnc2[nH]1 [Folic acid] |  | 11.4%
C[C@@H](O)[C@H]1C(=O)N2C(C(=O)O)=C(S[C@@H]3CN[C@H](C(=O)N(C)C)C3)[C@H](C)[C@H]12 [Meropenem] | 0% | 
Cc1cc(=O)[nH]c(=S)[nH]1 [Methylthiouracil] |  | 0%
CN1CC[C@H](c2c(O)cc(O)c3c(=O)cc(-c4ccccc4Cl)oc23)[C@H](O)C1 [Flavopiridol (Alvocidib)] |  | 50.4%
OCCN1CCN(CCCN2c3ccccc3Sc3ccc(Cl)cc32)CC1 [Perphenazine] |  | 0%
CCOC(=O)C1=C[C@]2(CC)CCCN3CCc4c(n1c1ccccc41)[C@@H]32 [Vinpocetine] |  | 1.15%
Cc1c(Nc2ncccc2C(=O)O)cccc1C(F)(F)F [Flunixin Meglumin] |  | 0%
CC(=O)N1CCN(c2ccc(OC[C@@H]3CO[C@@](Cn4ccnc4)(c4ccc(Cl)cc4Cl)O3)cc2)CC1 (racemic) [Ketoconazole] |  | 19.1%
CC(C)C[C@H](NC(=O)[C@H](Cc1ccccc1)NC(=O)c1cnccn1)B(O)O [Bortezomib (PS-341)] |  | 54.2%
O=C1c2ccccc2C(=O)C1c1ccccc1 [Phenindione] |  | 28.8%
CN1C(C(=O)Nc2ccccn2)=C(O)c2sccc2S1(=O)=O [Tenoxicam] |  | 0%
CCC(=O)OCC(=O)[C@@]1(OC(=O)CC)[C@@H](C)C[C@H]2[C@@H]3CCC4=CC(=O)C=C[C@]4(C)[C@@]3(Cl)[C@@H](O)C[C@@]21C [Beclomethasone dipropionate] |  | 0%
CCC(C)n1ncn(-c2ccc(N3CCN(c4ccc(OC[C@H]5CO[C@](Cn6cncn6)(c6ccc(Cl)cc6Cl)O5)cc4)CC3)cc2)c1=O (mixture of isomers) [Itraconazole] |  | 1.14%
CC(C)c1cccc(C(C)C)c1O [Propofol] |  | 19.3%
COc1cc(C(C)=O)ccc1OCCCN1CCC(c2noc3cc(F)ccc23)CC1 [Iloperidone] |  | 0%

Compound | %inhibition | inhibition at 100 µM
CN1C(C(=O)Nc2ccccn2)=C(O)c2sc(Cl)cc2S1(=O)=O [Lornoxicam] |  | 18.3%
CCCCCCCCCCC[C@@H](C[C@@H]1OC(=O)[C@H]1CCCCCC)OC(=O)[C@H](CC(C)C)NC=O [Orlistat] |  | 0%
CC(COc1ccccc1Cc1ccccc1)N1CCCCC1 (stereo not drawn) [Benproperine phosphate] |  | 0%
NC(=O)c1ncn([C@@H]2O[C@H](CO)[C@@H](O)[C@H]2O)c1O [Mizoribine] |  | 0%
CCCCOc1ccc(C(=O)CCN2CCCCC2)cc1 [Dyclonine HCl] |  | 0%
CN(C)C(=O)Oc1ccc[n+](C)c1 [Pyridostigmine Bromide] |  | 0%
CCCCC[C@H](O)/C=C/[C@H]1[C@H](O)CC(=O)[C@@H]1C/C=C\CCCC(=O)O [Prostaglandin E2 (PGE2)] |  | 8.12%
C[C@H](CCC(=O)O)[C@H]1CC[C@H]2[C@@H]3CC[C@@H]4C[C@H](O)CC[C@]4(C)[C@H]3C[C@H](O)[C@]12C [Deoxycholic acid] |  | 0%
CCCCCCCCCCCCCCCCCC(=O)O [Stearic acid] |  | 6.72%
NC1=NCC2c3ccccc3Cc3ccccc3N12 (stereo not drawn) [Epinastine HCl] |  | 4.62%
CNCC[C@@H](Oc1ccccc1C)c1ccccc1 [Atomoxetine HCl] |  | 0%
CCCCC(=O)N(Cc1ccc(-c2ccccc2-c2nnn[nH]2)cc1)[C@H](C(=O)O)C(C)C [Valsartan] |  | 31.1%
CC1=NN(c2ccccc2)C(=O)C1 [Edaravone] |  | 5.75%
C[C@H](CCC(=O)O)[C@H]1CC[C@H]2[C@@H]3[C@H](O)C[C@@H]4C[C@H](O)CC[C@]4(C)[C@H]3CC[C@]12C [Chenodeoxycholic Acid] |  | 0%
CN1C(CCl)Nc2cc(Cl)c(S(N)(=O)=O)cc2S1(=O)=O (stereo not drawn) [Methyclothiazide] |  | 0%
Cc1ccc2c(Cl)cc(Cl)c(O)c2n1 [Chlorquinaldol] |  | 1.48%
CC1(C)CCC(C)(C)c2cc(NC(=O)c3ccc(C(=O)O)cc3)ccc21 [Tamibarotene] |  | 1.99%
Cc1ccc(NC(=O)C2(c3ccc4c(c3)OC(F)(F)O4)CC2)nc1-c1cccc(C(=O)O)c1 [VX-809 (Lumacaftor)] |  | 0%
CC(=O)N[C@@H](CS)C(=O)O [Acetylcysteine] |  | 0%
Clc1ccc(C(Cn2ccnc2)OCc2ccc(Sc3ccccc3)cc2)c(Cl)c1 (stereo not drawn) [Fenticonazole Nitrate] |  | 0%
C=CC(=O)Nc1cccc(Nc2nc(Nc3ccc(N4CCN(C(C)=O)CC4)cc3OC)ncc2C(F)(F)F)c1 [Rociletinib (CO-1686, AVL-301)] |  | 0%
CC[C@H]1OC(=O)[C@H](C)[C@@H](O[C@H]2C[C@@](C)(OC)[C@@H](O)[C@H](C)O2)[C@H](C)[C@@H](O[C@@H]2O[C@H](C)C[C@H](N(C)C)[C@H]2O)[C@](C)(O)C[C@@H](C)CN(C)[C@H](C)[C@@H](O)[C@]1(C)O [Azithromycin Dihydrate] | 2.079% | 
C#C[C@]1(O)CC[C@H]2[C@@H]3CCC4=CC(=O)CC[C@@H]4[C@H]3CC[C@@]21CC [Levonorgestrel] |  | 53.4%
S=c1nc[nH]c2nc[nH]c12 [6-Mercaptopurine (6-MP) Monohydrate] |  | 4.11%
